Counter-ions that a name gives are not always drawn.

These results are taken from patent publication US6197769A, “Indazole amide compounds as serotoninergic agents” (Aziende Chimiche Riunite Angelini Francesco A.C.R.A.F. …, priority 1997, dated 2001).

T1 sequence (Q62758 whole entry): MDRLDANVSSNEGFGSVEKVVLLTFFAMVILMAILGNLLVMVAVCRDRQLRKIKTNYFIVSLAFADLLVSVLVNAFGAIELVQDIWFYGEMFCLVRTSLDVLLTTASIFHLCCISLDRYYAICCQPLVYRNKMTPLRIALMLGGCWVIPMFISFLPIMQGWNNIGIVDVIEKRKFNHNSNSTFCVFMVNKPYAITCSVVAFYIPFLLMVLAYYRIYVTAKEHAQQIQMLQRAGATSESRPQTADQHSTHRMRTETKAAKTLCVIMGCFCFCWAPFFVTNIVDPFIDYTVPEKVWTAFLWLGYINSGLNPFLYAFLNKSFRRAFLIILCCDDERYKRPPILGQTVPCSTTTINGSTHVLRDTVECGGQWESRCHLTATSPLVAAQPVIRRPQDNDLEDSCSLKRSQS

The test addresses T1, 5-HT4 Receptor (Rattus norvegicus, UniProt Q62758).
T1 construct: serotonin-induced relaxation of rat oesophageal tunica; from tissue; host or cells: rat oesophageal tunica
As to the kind of experiment: Antagonistic action on 5-HT4 receptor: inhibition of serotonin-induced relaxation of rat oesophageal tunica pre-contracted with carbachol. The conditions noted are these: antagonism, read-out: pA2 (converted). On the procedure: Antagonistic Action on 5-HT4 Receptor
The antagonistic action of the compounds of the formula (I) was evaluated by testing the influence of the compound under evaluation on serotonin-induced relaxation of rat oesophageal tunica pre-contracted with carbachol according to the method described by J. D. Gale et al. in "Br. J. Pharmacol.", 111, 332-338, (1994).
Regarding `CC(C)n1nc(C(=O)NCC2CCN(CCc3ccccc3)CC2)c2ccccc21` [AFR 306, N3-{[1-(2-phenylethyl)-4-piperidinyl]methyl}-1-isopropyl-1H-3-indazolecarboxamide hydrochloride], the Kb was 0.437 nM.

`CC(C)n1nc(C(=O)NCC2CCN(CCCCc3ccccc3)CC2)c2ccccc21` [AFR 603, N3-{[1-(4-phenylbutyl)-4-piperidinyl]methyl}-1-isopropyl-1H-3-indazolecarboxamide oxalate]: the Kb is 0.759 nM.

Consider `CC(C)n1nc(C(=O)NCC2CCN(CCC3CCCCC3)CC2)c2ccccc21` [AFR 604, N3-{[1-(2-cyclohexylethyl)-4-piperidinyl]methyl}-1-isopropyl-1H-3-indazolecarboxamide hydrochloride], for which the Kb is 6.46 nM.

Turning to `CC(C)n1nc(C(=O)NCC2CCN(CCc3ccccn3)CC2)c2ccccc21` [AFR 605, N3-({1-[2-(2-pyridinyl)ethyl]4-piperidinyl}methyl)-1-isopropyl-1H-3-indazolecarboxamide hydrochloride], the Kb is 0.0158 nM.
